Data published in patent publication US20250344734A1, “UNSATURATED FATTY ACIDS AND THEIR USE TO MODIFY TASTE” (Firmenich Incorporated, priority 2022, published 2025).

Legend:
T2R09 (TAS2R09) = target: T1, T2R09 (TAS2R09) (Homo sapiens, UniProt Q9NYW1); assay: FLIPR calcium assay, block of bitter agonist response, T2R09; assay type: cell-based; details: unsaturated fatty acid concentration of 200 µM, cells stimulated with known bitter agonist
T1 construct: expressed in transfected cells; host or cells: cells expressing a promiscuous G protein (e.g., G16g44)
T1 sequence (Q9NYW1 1-312): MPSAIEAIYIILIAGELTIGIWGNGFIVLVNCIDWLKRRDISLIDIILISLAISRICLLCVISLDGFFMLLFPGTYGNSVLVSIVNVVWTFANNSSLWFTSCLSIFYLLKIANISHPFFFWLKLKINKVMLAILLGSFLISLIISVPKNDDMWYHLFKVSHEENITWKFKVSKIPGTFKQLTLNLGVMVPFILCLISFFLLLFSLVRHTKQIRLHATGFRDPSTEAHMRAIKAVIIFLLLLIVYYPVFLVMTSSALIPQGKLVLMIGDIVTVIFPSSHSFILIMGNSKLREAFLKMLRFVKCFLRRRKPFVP
Procedure: (§1) Cells expressing a promiscuous […] (e.g., G16g44) were transfected with vectors encoding 18 functional bitter receptor cDNAs, with one receptor per transfection. The cells were transfected directly in 384-well format high-density plates and incubated for 28 hours. Later, cells were loaded with the Ca-specific dye Fluo4-AM. After an incubation of 60 minutes, excess dye is washed off, and cells are stimulated with a known bitter agonist for each receptor and various unsaturated fatty acids. Changes in intracellular fluorescence are recorded using a FLIPR instrument. Bitter antagonists and corresponding receptors are identified based on percentage inhibition of agonist's activity on a given receptor.
(§2) The above protocol was carried out using 16 different unsaturated fatty acids. A particular T2R receptor was identified as being antagonized by a particular unsaturated fatty acid if it triggered a >25% block of agonist's cellular response at 200 μM concentration of unsaturated fatty acid. […] Table 2 indicates the sixteen (16) compounds tested by their compound number from Table 1 above. The 18 bitter taste receptors screened are the human bitter taste receptors we named. […]

T2R61 (TAS2R43) = target: T2, T2R61 (TAS2R43) (Homo sapiens, UniProt P59537); assay: FLIPR calcium assay, block of bitter agonist response, T2R61; assay type: cell-based; details: unsaturated fatty acid concentration of 200 µM, cells stimulated with known bitter agonist
T2 construct: expressed in transfected cells; host or cells: cells expressing a promiscuous G protein (e.g., G16g44)
T2 sequence (P59537 1-309): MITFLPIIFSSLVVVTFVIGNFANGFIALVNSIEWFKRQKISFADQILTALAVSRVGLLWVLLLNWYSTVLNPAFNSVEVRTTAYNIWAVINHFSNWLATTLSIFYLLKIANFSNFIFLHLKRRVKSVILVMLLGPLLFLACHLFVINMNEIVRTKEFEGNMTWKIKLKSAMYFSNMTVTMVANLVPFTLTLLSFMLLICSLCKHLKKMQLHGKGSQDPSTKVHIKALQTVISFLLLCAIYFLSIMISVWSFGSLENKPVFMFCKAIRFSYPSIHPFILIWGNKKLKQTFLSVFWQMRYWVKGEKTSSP
Procedure: as §1, §2

SMILES: CC(C)=CCC/C(C)=C/C(=O)O [Compound 129]
- percentage block of cellular response over baseline, 09 (T2R09 (TAS2R09)): 30%
- percentage block of cellular response over baseline, 61 (T2R61 (TAS2R43)): >90%
